Data reported in patent US12459922B2 (Gilead Sciences, Inc., priority 2022, dated 2025).

Key:
PARP7 = molecular target: T1, PARP7 (Homo sapiens, UniProt Q7Z3E1); experiment: Probe Displacement Assay for PARP7 (MSD electrochemiluminescent, biotinylated probe RBNO11147); settings: displacement of biotinylated probe RBNO11147 from PARP7 NAD+-binding site; read-out: MSD ProbeDisp PARP7 IC50
T1 sequence (Q7Z3E1 1-657): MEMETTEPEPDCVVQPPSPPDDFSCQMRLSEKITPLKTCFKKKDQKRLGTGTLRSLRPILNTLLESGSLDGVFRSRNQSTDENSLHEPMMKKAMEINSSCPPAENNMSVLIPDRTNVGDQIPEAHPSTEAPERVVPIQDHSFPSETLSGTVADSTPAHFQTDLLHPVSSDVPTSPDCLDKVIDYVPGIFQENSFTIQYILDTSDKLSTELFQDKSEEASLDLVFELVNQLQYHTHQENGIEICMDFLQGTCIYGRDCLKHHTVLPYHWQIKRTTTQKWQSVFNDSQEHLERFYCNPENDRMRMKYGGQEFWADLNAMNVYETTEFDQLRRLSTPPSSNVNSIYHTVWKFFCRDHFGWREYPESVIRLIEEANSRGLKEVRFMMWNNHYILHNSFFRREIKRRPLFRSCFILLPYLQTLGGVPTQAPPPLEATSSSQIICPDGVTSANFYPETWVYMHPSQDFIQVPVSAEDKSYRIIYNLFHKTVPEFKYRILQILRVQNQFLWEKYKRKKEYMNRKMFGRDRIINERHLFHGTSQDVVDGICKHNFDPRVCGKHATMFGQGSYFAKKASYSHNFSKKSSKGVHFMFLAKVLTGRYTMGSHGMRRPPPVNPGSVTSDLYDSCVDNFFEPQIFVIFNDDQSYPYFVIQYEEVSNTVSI
Method: Displacement of a biotinylated probe (RBNO11147; Wigle et al., Cell Chemical Biology, 2020, pp. 877-887) from the PARP7 NAD+-binding site was measured in vitro using a Mesoscale Discovery electrochemiluminescent assay. […] Next, 10 ml of 10 nM PARP7 protein incubated for 1 hour at room temperature with a dose response curve of each test compound in a Greiner LDV polypropylene plate (#781201) is added to the MSD plate containing the immobilized probe. The interaction is allowed to reach equilibrium for 1.5 hours, and then 10 ml of SULFO-TAG labeled anti-GST antibody (Cat #R32AA-1) is added to each well and allowed to incubate for an additional 1.5 hours at room temperature. Finally, 10 ml of MSD read buffer T (4×, Cat. #R92C-1) is added to each well using a Bravo liquid handler to prevent air bubbles in the wells, and the plates are subsequently read in an MSD instrument. Light intensity is then measured to quantify the amount of PARP7 bound to the immobilized probe on the plate.

[1] = system: endogenous cellular STAT1 (phosphorylated at Tyr701) in NCI-H1373 cells; experiment: Phospho-STAT1 (Tyr701) LANCE Ultra TR-FRET Detection Assay; type: cell-based; settings: Homo sapiens, NCI-H1373, 48 h, phospho-STAT1 (Tyr701) induction, read-out: NH1373 pSTAT1 EC50

C[C@@H](CCCn1ccc2cc(-c3cc(N)c(C(F)(F)F)cn3)c(F)cc2c1=O)Nc1cn[nH]c(=O)c1C(F)(F)F [Example 49, 6-[4-amino-5-(trifluoromethyl)-2-pyridyl]-7-fluoro-2-[(4S)-4-[[6-oxo-5-(trifluoromethyl)-1H-pyridazin-4-yl]amino]pentyl]isoquinolin-1-one]
IC50 (PARP7): 0.413 nM
EC50 [1]: 54.1 nM

C[C@@H](CCCn1ccc2cc(-c3ncc4cn[nH]c4n3)c(F)cc2c1=O)Nc1cn[nH]c(=O)c1C(F)(F)F [Example 299, (S)-7-fluoro-2-(4-((6-oxo-5-(trifluoromethyl)-1,6-dihydropyridazin-4-yl)amino)pentyl)-6-(1H-pyrazolo[3,4-d]pyrimidin-6-yl)isoquinolin-1(2H)-one]
IC50 (PARP7): 0.221 nM
EC50 [1]: 31 nM

C[C@@H](CCCn1ccc2cc(-c3ccccn3)c(F)cc2c1=O)Nc1cn[nH]c(=O)c1C(F)(F)F [Example 31, 7-fluoro-2-[(4S)-4-[[6-oxo-5-(trifluoromethyl)-1H-pyridazin-4-yl]amino]pentyl]-6-(2-pyridyl)isoquinolin-1-one]
IC50 (PARP7): 0.2 nM
EC50 [1]: 2180 nM

C[C@@H](CCCn1ccc2cc(-c3ncc(C(F)(F)F)c(N4C[C@@H](O)[C@@H]4C)n3)c(F)cc2c1=O)Nc1cn[nH]c(=O)c1C(F)(F)F [Example 311, 7-fluoro-6-(4-((2S,3R)-3-hydroxy-2-methylazetidin-1-yl)-5-(trifluoromethyl)pyrimidin-2-yl)-2-((S)-4-((6-oxo-5-(trifluoromethyl)-1,6-dihydropyridazin-4-yl)amino)pentyl)isoquinolin-1(2H)-one]
IC50 (PARP7): 0.258 nM
EC50 [1]: 14 nM

C[C@@H](CCCn1ccc2cc(-c3ccc(C(N)C(F)(F)F)cn3)c(F)cc2c1=O)Nc1cn[nH]c(=O)c1C(F)(F)F (stereo partly drawn) [Example 50, 6-[5-(1-amino-2,2,2-trifluoro-ethyl)-2-pyridyl]-7-fluoro-2-[(4S)-4-[[6-oxo-5-(trifluoromethyl)-1H-pyridazin-4-yl]amino]pentyl]isoquinolin-1-one]
IC50 (PARP7): 2.13 nM
EC50 [1]: 2760 nM

C[C@@H](CCCn1ccc2cc(-c3ncc(F)cn3)c(F)c(F)c2c1=O)Nc1cn[nH]c(=O)c1C(F)(F)F [Example 54, (S)-7,8-difluoro-6-(5-fluoropyrimidin-2-yl)-2-(4-((6-oxo-5-(trifluoromethyl)-1,6-dihydropyridazin-4-yl)amino)pentyl)isoquinolin-1(2H)-one]
IC50 (PARP7): 0.685 nM
EC50 [1]: 156 nM

C[C@@H](CCCn1ccc2nc(-c3ccc(C(F)(F)F)cn3)ccc2c1=O)Nc1cn[nH]c(=O)c1C(F)(F)F [Example 14]
IC50 (PARP7): 0.5 nM
EC50 [1]: 94.3 nM

O=c1[nH]ncc(N2C[C@H]3C[C@H]3[C@H]2CCCn2ccc3nc(-c4ccc(C(F)(F)F)cn4)ccc3c2=O)c1C(F)(F)F [Example 47, 6-[3-[(1R,2R,5S)-3-[6-oxo-5-(trifluoromethyl)-1H-pyridazin-4-yl]-3-azabicyclo[3.1.0]hexan-2-yl]propyl]-2-[5-(trifluoromethyl)-2-pyridyl]-1,6-naphthyridin-5-one]
IC50 (PARP7): 1.27 nM
EC50 [1]: 10000 nM

O=c1[nH]ncc(N[C@H](CCCn2ccc3cc(-c4ncc(Cl)cn4)c(F)cc3c2=O)COC(F)F)c1C(F)(F)F [Example 381, (R)-6-(5-chloropyrimidin-2-yl)-2-(5-(difluoromethoxy)-4-((6-oxo-5-(trifluoromethyl)-1,6-dihydropyridazin-4-yl)amino)pentyl)-7-fluoroisoquinolin-1(2H)-one]
IC50 (PARP7): 0.28 nM
EC50 [1]: 0.885 nM

Nc1nc(-c2cc3ccn(C[C@@H]4CCC[C@H](Nc5cn[nH]c(=O)c5C(F)(F)F)C4)c(=O)c3cc2F)ncc1C(F)(F)F [Example 184, 6-[4-amino-5-(trifluoromethyl)pyrimidin-2-yl]-7-fluoro-2-[[(1R,3S)-3-[[6-oxo-5-(trifluoromethyl)-1H-pyridazin-4-yl]amino]cyclohexyl]methyl]isoquinolin-1-one]
IC50 (PARP7): 0.311 nM
EC50 [1]: 1.8 nM

COc1cnc(-c2cc3ccn(CCC[C@H](C)Nc4cn[nH]c(=O)c4C(F)(F)F)c(=O)c3cc2F)nc1 [Example 22, (S)-7-fluoro-6-(5-methoxypyrimidin-2-yl)-2-(4-((6-oxo-5-(trifluoromethyl)-1,6-dihydropyridazin-4-yl)amino)pentyl)isoquinolin-1(2H)-one]
IC50 (PARP7): 0.4 nM
EC50 [1]: 71.3 nM

C[C@@H](CCCn1cnc2cc(-c3ncc(C(F)(F)F)cn3)c(F)cc2c1=O)Nc1cn[nH]c(=O)c1C(F)(F)F [Example 29, (S)-6-fluoro-3-(4-((6-oxo-5-(trifluoromethyl)-1,6-dihydropyridazin-4-yl)amino)pentyl)-7-(5-(trifluoromethyl)pyrimidin-2-yl)quinazolin-4(3H)-one]
IC50 (PARP7): 1.6 nM
EC50 [1]: 31.6 nM

C[C@@H](CCCn1ccc2cc(-c3ncc(C(F)(F)F)c(N4C[C@@H](O)C[C@@H]4C)n3)c(F)cc2c1=O)Nc1cn[nH]c(=O)c1C(F)(F)F [Example 312, 7-fluoro-6-(4-((2S,4S)-4-hydroxy-2-methylpyrrolidin-1-yl)-5-(trifluoromethyl)pyrimidin-2-yl)-2-((S)-4-((6-oxo-5-(trifluoromethyl)-1,6-dihydropyridazin-4-yl)amino)pentyl)isoquinolin-1(2H)-one]
IC50 (PARP7): 0.623 nM
EC50 [1]: 70 nM

CC[C@@H](CCCn1cnc2cc(-c3ncc(C(F)F)cn3)c(F)cc2c1=O)Nc1cn[nH]c(=O)c1C(F)(F)F [Example 156, 7-[5-(difluoromethyl)pyrimidin-2-yl]-6-fluoro-3-[(4S)-4-[[6-oxo-5-(trifluoromethyl)-1H-pyridazin-4-yl]amino]hexyl]quinazolin-4-one]
IC50 (PARP7): 0.29 nM
EC50 [1]: 22.1 nM

CC[C@@H](CCCn1cnc2cc(-c3ncc(C(F)(F)F)cn3)c(F)cc2c1=O)Nc1cn[nH]c(=O)c1C(F)(F)F [Example 155, (S)-6-fluoro-3-(4-((6-oxo-5-(trifluoromethyl)-1,6-dihydropyridazin-4-yl)amino)hexyl)-7-(5-(trifluoromethyl)pyrimidin-2-yl)quinazolin-4(3H)-one]
IC50 (PARP7): 0.2 nM
EC50 [1]: 21.2 nM

C[C@@H](CCCn1ccc2cc(-c3ccc(OC(F)F)cn3)cc(F)c2c1=O)Nc1cn[nH]c(=O)c1C(F)(F)F [Example 17, (S)-6-(5-(difluoromethoxy)pyridin-2-yl)-8-fluoro-2-(4-((6-oxo-5-(trifluoromethyl)-1,6-dihydropyridazin-4-yl)amino)pentyl)isoquinolin-1(2H)-one]
IC50 (PARP7): 0.4 nM
EC50 [1]: 117 nM

C[C@@H](CCCn1cnc2cc(-c3ncc(C(F)(F)F)c(N4C[C@@H](O)[C@@H]4C)n3)c(F)cc2c1=O)Nc1cn[nH]c(=O)c1C(F)(F)F [Example 314, 6-fluoro-7-(4-((2S,3R)-3-hydroxy-2-methylazetidin-1-yl)-5-(trifluoromethyl)pyrimidin-2-yl)-3-((S)-4-((6-oxo-5-(trifluoromethyl)-1,6-dihydropyridazin-4-yl)amino)pentyl)quinazolin-4(3H)-one]
IC50 (PARP7): 0.185 nM
EC50 [1]: 6.08 nM

C[C@@H](CCCn1ccc2cc(-c3ccc(F)cn3)c(F)c(F)c2c1=O)Nc1cn[nH]c(=O)c1C(F)(F)F [Example 52, (S)-7,8-difluoro-6-(5-fluoropyridin-2-yl)-2-(4-((6-oxo-5-(trifluoromethyl)-1,6-dihydropyridazin-4-yl)amino)pentyl)isoquinolin-1(2H)-one]
IC50 (PARP7): 0.763 nM
EC50 [1]: 164 nM
